# Laboratory results: PubChem BioAssay (NCI)
# Values joined by “and” are separate entries in the source; they are usually repeats but may differ in a detail not shown here. Equal entries are not always repeated.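 Grown in 96-well plates, cells were treated for 48 hours with each compound at five concentrations. Insufficient inhibition: endpoint recorded as highest concentration tested. Abbreviation: GI50, concentration required for 50% inhibition of growth. TGI: concentration producing complete growth inhibition.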
# Tests used:
# Assay in all cases: NCI-60 cell line screen, 48 h
# MDA-MB-435 = system: MDA-MB-435
# M14 melanoma = system: M14 melanoma
# BT-549 breast = system: BT-549 breast
# IGROV1 ovarian = system: IGROV1 ovarian
# TK-10 renal = system: TK-10 renal
# OVCAR-4 ovarian = system: OVCAR-4 ovarian
# K-562 leukemia = system: K-562 leukemia
# MDA-MB-231 breast = system: MDA-MB-231 breast
# NCI-H460 lung = system: NCI-H460 lung
# 786-0 renal = system: 786-0 renal
# M19-MEL melanoma = system: M19-MEL melanoma
# KM20L2 colon = system: KM20L2 colon
SMILES,TGI (MDA-MB-435),TGI (M14 melanoma),TGI (BT-549 breast),TGI (IGROV1 ovarian),TGI (TK-10 renal),TGI (OVCAR-4 ovarian),TGI (K-562 leukemia),TGI (MDA-MB-231 breast),TGI (NCI-H460 lung),TGI (786-0 renal),GI50 (BT-549 breast),GI50 (TK-10 renal),TGI (M19-MEL melanoma),TGI (KM20L2 colon),GI50 (M19-MEL melanoma),GI50 (M14 melanoma),GI50 (IGROV1 ovarian),GI50 (OVCAR-4 ovarian),GI50 (KM20L2 colon),GI50 (MDA-MB-231 breast)
CCn1c(=O)c2c3ccc(O)cc3[nH]c2c2ccc(O)cc21,> 100 µM,> 100 µM,> 100 µM,> 100 µM,> 100 µM,> 100 µM,> 100 µM,> 100 µM,–,–,–,–,–,–,–,–,–,–,–,–
CC(=O)OC1(C)CC(C)C(=O)C(C(O)CC2CC(=O)NC(=O)C2)C1 (configuration not stated),0.272 µM and 0.733 µM,0.172 µM and 0.0421 µM,–,0.0489 µM,0.164 µM,0.178 µM and 0.0277 µM,0.0322 µM,0.196 µM,0.363 µM and 0.224 µM,0.0669 µM,0.0148 µM,0.0117 µM,–,–,–,–,–,–,–,–
Nc1n[nH]c(N)n1,> 10000 µM,> 10000 µM,> 10000 µM,> 7740 µM,> 10000 µM,> 10000 µM,> 10000 µM,> 10000 µM,8220 µM,> 10000 µM,–,–,> 10000 µM,> 10000 µM,–,–,–,–,–,–
NCCNc1ccc(NCCN)c2c1C(=O)c1c(O)ccc(O)c1C2=O,2.37 µM,1.27 µM and 1.32 µM,2.18 µM,1.17 µM and 1.5 µM,3.64 µM and 1.4 µM,1.09 µM and 0.715 µM,0.14 µM,2.14 µM and 0.621 µM,0.159 µM and 0.178 µM,0.0555 µM and 0.0497 µM,–,0.289 µM,1.04 µM and 1.17 µM,1.5 µM and 1.53 µM,0.104 µM,0.0324 µM,0.182 µM,0.0625 µM,0.251 µM,0.146 µM
Oc1ccccc1CNCc1ccccc1O,> 100 µM,> 100 µM,> 100 µM,> 100 µM,> 100 µM,> 100 µM,> 100 µM,> 100 µM,> 100 µM,> 100 µM,–,–,–,–,–,–,–,–,–,–
CCN(CC)CCCNC(=O)c1ccccc1Nc1c(Cl)cccc1Cl,–,7.86 µM,–,34 µM,23.7 µM,23 µM,23 µM,–,–,–,–,–,11 µM,5.58 µM,–,–,–,–,–,–
CCCCCC1CC(C(C)=O)CN1c1ccc(F)cc1 (configuration not stated),–,> 100 µM,–,–,> 100 µM,–,–,–,> 100 µM,–,–,–,> 100 µM,> 100 µM,–,–,–,–,–,–
O=c1[nH]c(Br)nc2n[nH]nc12,> 100 µM,> 100 µM,> 100 µM,> 100 µM,> 100 µM,> 100 µM,> 100 µM,> 100 µM,> 100 µM,> 100 µM,–,–,–,–,–,–,–,–,–,–
CCC/C=C/C=C\C(=O)O[C@@H]1[C@@H](C)[C@]2(O)[C@@H]3C=C(C)C(=O)[C@H]3CC(COC(C)=O)=C[C@H]2[C@@H]2C(C)(C)[C@]12OC(C)=O,–,–,–,109 µM,–,51.4 µM,128 µM,–,63.7 µM,–,–,–,76.5 µM,88.8 µM,–,–,–,–,–,–
CC(=O)C(C(=O)C(=O)Nc1cc(Cl)c(Cl)cc1Cl)c1csc(N)n1 (configuration not stated),–,> 100 µM,–,> 100 µM,> 100 µM,> 100 µM,> 100 µM,–,> 100 µM,–,–,–,> 100 µM,> 100 µM,–,–,–,–,–,–
O=C(N/N=C/c1cc(Cl)cc(Cl)c1[O-])c1ccccc1O.O=C(N/N=C/c1cc(Cl)cc(Cl)c1[O-])c1ccccc1O.[Cu+2],–,0.964 µM,–,1.16 µM,1.65 µM,0.637 µM,0.545 µM,–,–,–,–,–,–,2.28 µM,–,–,–,–,0.909 µM,–
NC1C2C=CC(C2)C1C(=O)O (configuration not stated),> 100 µM,> 100 µM,> 100 µM,> 100 µM,> 100 µM,> 100 µM,> 100 µM,> 100 µM,–,> 100 µM,–,–,–,–,–,–,–,–,–,–
